According to US20230092679A1, “MCL-1 INHIBITOR ANTIBODY-DRUG CONJUGATES AND METHODS OF USE” (NOVARTIS AG, priority 2019, published 2023):

What was measured:
KMS21 BM cells [1] = assay: CTG cell viability assay, KMS21 BM cells; assay type: cell-based; details: FIG. 18
Procedure: Cell viability may also be measured, e.g., by quantifying ATP, an indicator of metabolically active cells. In some embodiments, in vitro potency and/or cell viability of prepared ADCs or Mcl-1 inhibitor compounds may be assessed using a CellTiter-Glo® (CTG) cell viability assay, as described in the examples provided herein. In this assay, in some embodiments, the single reagent (CellTiter-Glo® Reagent) is added directly to cells cultured in serum-supplemented medium. The addition of reagent results in cell lysis and generation of a luminescent signal proportional to the amount of ATP present. The amount of ATP is directly proportional to the number of cells present in culture

KMS21 BM cells [2] = assay: Cell viability CTG assay, anti-CD46-Mcl-1 ADC (Example 14); assay type: cell-based; details: 72h
Procedure: KMS21 BM cells were cultivated in RPM11640 supplemented with 10% heat inactivated fetal bovine serum, penicillin (100 IU/ml), streptomycin (100 μg/ml) and L-glutamine (2 mM), at 37° C. in a humidified atmosphere containing 5% CO2. KMS21 BM cells were seeded in 96 microwell plates and exposed to the ADCs for 72h (3.16 fold serially diluted; 9 concentrations each, triplicates). […] All the conditions were tested in triplicates. Luminescence was quantified on a multipurpose plate reader. IC50s (Table 33) were calculated using standard four-parametric curve fitting. […] Each experiment was performed at least twice, with results being reproducible.

COc1ccccc1-c1nccc(COc2ccccc2C[C@@H](Oc2ncnc3sc(-c4ccc(F)cc4)c(-c4ccc(OCCN5CCN(C)CC5)c(Cl)c4C)c23)C(=O)O)n1 [C1, (2R)-2-[(5Sa)-5-[3-chloro-2-methyl-4-[2-(4-methylpiperazin-1-yl)ethoxy]phenyl]-6-(4-fluorophenyl)thieno[2,3-d]pyrimidin-4-yl]oxy-3-[2-[[2-(2-methoxyphenyl)pyrimidin-4-yl]methoxy]phenyl]propanoic acid]
viability of KMS21 BM cells (KMS21 BM cells [1]): dose dependent decrease in the viability
viability of KMS21 BM cells in CTG assay, in words (KMS21 BM cells [2]; FIG. 18): dose dependent decrease in the viability
IC50 (KMS21 BM cells [2]; KMS-21BM, KMS21BM cell line, CTG): 2.31 nM
